{"source": "patent US20070078109A1", "about": "“Compositions and methods used to treat acne and candida” (priority 2004, published 2007)", "key": {"[1]": {"system": "C. albicans isolates, including one fluconazole-resistant strain", "details": "AGP at 0.25% topical, 1-7 days, cyclophosphamide-immunosuppressed animals; compared with 2% miconazole", "method": "Pre-clinical studies with three C. albicans isolates, including one fluconazole-resistant strain, were performed using immunosuppressed animals with cyclophosphamide."}, "P. acnes": {"system": "P. acnes", "details": "complete inhibition"}, "Escherichia coli": {"system": "Escherichia coli", "details": "at low concentration"}, "Staphyloccocus aureus": {"system": "Staphyloccocus aureus", "details": "at low concentration"}, "acne": {"system": "acne", "details": "4% active AGP formula; in less than 48 hours"}, "[2]": {"system": "P. acnes and various pathogenic candida", "details": "including against resistant pathogenic strains"}}}
{"substance": "N-acetylglucoseamine (AGA)-glucosamine (GA)-pyrithione (PR) [AGP]", "values": [{"measurement": "clearing the infection", "setting": "[1]", "result": "equivalent in clearing the infection as 2% miconazole"}, {"measurement": "concentration that completely inhibited P. acnes", "setting": "P. acnes", "result": "less than 0.1 mg/mL"}, {"measurement": "activity toward Escherichia coli", "setting": "Escherichia coli", "result": "active"}, {"measurement": "activity toward Staphyloccocus aureus", "setting": "Staphyloccocus aureus", "result": "active"}, {"measurement": "results in acne patients", "setting": "acne", "result": "remarkable results"}, {"measurement": "bactericidal activity", "setting": "[2]", "result": "excellent bactericidal activity"}]}
